Laboratory results: the supplement of paper PMC10307832

Legend:
Assay in all cases: relative viability (nuclei count vs DMSO), 5 days (fraction); higher = more cells survive
[1] = compound: CC(O)(CS(=O)(=O)c1ccc(F)cc1)C(=O)Nc1ccc(C#N)c(C(F)(F)F)c1 [Bicalutamide] + Cc1nc(Nc2ncc(C(=O)Nc3c(C)cccc3Cl)s2)cc(N2CCN(CCO)CC2)n1 [Dasatinib] (partner 0.075 µM)
Summary of the method: (§1)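 One day after seeding in 1536-well plates, lung cancer cell lines were dosed by pin tool. Dosing was either single-drug or a fixed anchor-drug dose plus five library-drug doses (not always all listed) in √10 steps. After 5 days, nuclei were stained in one fix-and-stain step and counted on 4× images, and relative viability is the nuclei count of treated wells over that of vehicle wells, given as the median of duplicate plates.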

[2] = compound: C(C(=O)C(=O)O)Br [Bromopyruvate] + Nc1ncn([C@H]2C[C@H](O)[C@@H](CO)O2)c(=O)n1 [Decitabine] (partner 2 µM)
Summary of the method: as §1

[3] = compound: CC(O)(CS(=O)(=O)c1ccc(F)cc1)C(=O)Nc1ccc(C#N)c(C(F)(F)F)c1 [Bicalutamide] + CCNC(=O)c1noc(-c2cc(C(C)C)c(O)cc2O)c1-c1ccc(CN2CCOCC2)cc1 [Luminespib] (partner 0.01 µM)
Summary of the method: as §1

[4] = compound: C(C(=O)C(=O)O)Br [Bromopyruvate] + CC(C)C[C@H](NC(=O)[C@H](Cc1ccccc1)NC(=O)c1cnccn1)B(O)O [Bortezomib] (partner 0.002 µM)
Summary of the method: as §1

Cell Line | relative viability ([1]; first compound 0.08 µM) | relative viability ([1]; first compound 0.253 µM) | relative viability ([1]; first compound 0.8 µM) | relative viability ([1]; first compound 2.53 µM) | relative viability ([2]; first compound 1 µM) | relative viability ([2]; first compound 3.162 µM) | relative viability ([2]; first compound 10 µM) | relative viability ([2]; first compound 31.62 µM) | relative viability ([2]; first compound 100 µM) | relative viability ([3]; first compound 0.08 µM) | relative viability ([3]; first compound 0.253 µM) | relative viability ([3]; first compound 0.8 µM) | relative viability ([3]; first compound 2.53 µM) | relative viability ([4]; first compound 1 µM) | relative viability ([4]; first compound 3.162 µM) | relative viability ([4]; first compound 10 µM) | relative viability ([4]; first compound 31.62 µM) | relative viability ([4]; first compound 100 µM)
LC-2-ad | 0.693 | 0.514 | 0.701 | 0.514 | 0.856 | 0.726 | 0.797 | 0.872 | 0.695 | 1.1 | 0.954 | 1.03 | 1.06 | 0.924 | 0.934 | 1.07 | 0.977 | 0.988
LCLC-97TM1 | 0.954 | 0.853 | 0.813 | 0.817 | 0.246 | 0.226 | 0.263 | 0.243 | 0.16 | 0.793 | 0.659 | 0.941 | 0.829 | 0.957 | 0.625 | 0.735 | 0.573 | 0.586
LCLC-103H | 0.401 | 0.428 | 0.52 | 0.425 | 0.757 | 0.764 | 0.797 | 0.77 | 0.825 | 1.02 | 0.906 | 1.04 | 0.928 | 1.05 | 0.998 | 1.06 | 1.08 | 1.16
LOU-NH91 | 0.635 | 0.43 | 0.605 | 0.568 | 0.868 | 0.79 | 0.799 | 0.876 | 0.861 | 0.367 | 0.295 | 0.331 | 0.322 | 0.499 | 0.499 | 0.518 | 0.49 | 0.472
LU99A | 0.569 | 0.536 | 0.738 | 0.444 | 0.894 | 0.903 | 0.979 | 0.949 | 0.95 | 0.268 | 0.236 | 0.286 | 0.205 | 1.18 | 1.11 | 1.05 | 1.05 | 1.26
LXF-289 | 0.214 | 0.25 | 0.227 | 0.194 | 0.398 | 0.417 | 0.419 | 0.388 | 0.397 | 0.667 | 0.6 | 0.637 | 0.694 | 1.04 | 0.966 | 0.975 | 1.03 | 1
NCI-H23 | 0.789 | 0.67 | 1.07 | 0.802 | 0.299 | 0.294 | 0.308 | 0.277 | 0.303 | 0.223 | 0.195 | 0.171 | 0.212 | 1.03 | 0.991 | 1.25 | 0.941 | 0.839
NCI-H322M | 0.236 | 0.248 | 0.264 | 0.319 | 0.705 | 0.717 | 0.747 | 0.758 | 0.669 | 0.872 | 0.891 | 1.03 | 1.06 | 1.2 | 1.25 | 1.12 | 1.18 | 1.26
NCI-H441 | 0.646 | 0.63 | 0.664 | 0.534 | 0.324 | 0.238 | 0.243 | 0.22 | 0.242 | 0.291 | 0.377 | 0.356 | 0.411 | 0.37 | 0.549 | 0.481 | 0.548 | 0.459
